The text below walks through data of PMC9923211, “Functional characterization and key residues engineering of a regiopromiscuity O-methyltransferase involved in benzylisoquinoline alkaloid biosynthesis in Nelumbo nucifera” (Horticulture Research, 2022).

Common to all, as to assay: UPLC-MS methylation assay, Michaelis-Menten fit
One series deals with T1, NnOMT6 (Nelumbo nucifera, UniProt A0A1U7Z1M5).
T1 construct: gene LOC104585771
Type of series: biochemical. To be noted: 50 mM potassium phosphate pH 8.0, 37°C, 30 min.

The subject of series [1] is COc1cc2c(cc1O)[C@@H]1Cc3ccc(OC)c(O)c3CN1CC2. Type of series: biochemical, Nelumbo nucifera. The following applies: SAM as methyl donor, 50 mM potassium phosphate pH 8.0, 37°C, 30 min.
Series [2] concerns COc1c(O)cc2c3c1-c1ccccc1C[C@@H]3NCC2. Type of series: biochemical, Nelumbo nucifera. To be noted: SAM as methyl donor, 50 mM potassium phosphate pH 8.0, 37°C, 30 min.

As for `O=C(O)/C=C/c1ccc(O)c(O)c1` [compound 16, caffeic acid], at NnOMT6 (200 μM SAM), the Km (as a rule, the concentration of substrate that gives half-maximal velocity) is 216 µM.
Consider `C[S+](CC[C@H](N)C(=O)O)C[C@H]1O[C@@H](n2cnc3c(N)ncnc32)[C@H](O)[C@@H]1O` (some centres unmarked) [SAM], for which, on NnOMT6 (200 μM caffeic acid as acceptor), the Michaelis-Menten constant (Km) amounted to 163 µM.
Consider `Oc1ccc(C[C@@H]2NCCc3cc(O)c(O)cc32)cc1` [compound 1, (S)-norcoclaurine], for which, at NnOMT6 (200 μM SAM), the Km stood at 282 µM.
Consider NnOMT6 (Nelumbo nucifera; N323A), for which the results for the Km in series [1] and in series [2] were 86.35 µM and 132.77 µM, respectively.
